From PubChem BioAssay AID1963427 (Molecular Pharmacology Branch, DTP, NCI, 2024)

Tested on: 317291-083-R-J1-PDC complex spheroid growth
Experiment: Anticancer human tumor 317291-083-R-J1-PDC patient-derived soft tissue sarcoma cell line growth inhibition [Asc]
Conditions: for IC50: curve of first compound; for viability, T/C: stronger effect = lower value
Procedure, shortened: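 Concentration series start at each agent's clinical Cmax, or at 10 microM when none is established, and drop in half-log steps; agents are applied alone or together to complex spheroids built with HUVEC and hMSC.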
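Further: compound exposure lasted seven days after spheroids formed for three days.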
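Wherever viability, T/C is given: 100% = DMSO vehicle control wells.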

In the case of `NC1CCC(NC2CC2c2ccccc2)CC1` (centres undefined) + Cc1c(S(C)(=O)=O)c(-c2cc(F)cc(N3CCN(c4ccc(NS(=O)(=O)c5ccc(NC(CCN6CCC(C(=O)OCCCP(=O)(O)O)CC6)CSc6ccccc6)c(S(=O)(=O)C(F)(F)F)c5)cc4)CC3)c2)c(-c2ccc(Cl)cc2)n1C(C)C, the IC50 (second compound 0.0316 µM) is reported as over 0.1 µM, the IC50 (second compound 0.1 µM) is reported as over 0.1 µM and the IC50 (second compound 0.316 µM) is reported as over 0.1 µM. It also gave an IC50 (second compound 1 µM) of over 0.1 µM, an IC50 (second compound 3.16 µM) of over 0.1 µM and an IC50 (second compound 10 µM) of over 0.1 µM. For the same compound, the viability, T/C (second compound 0.0316 µM, first compound 0.000316 µM) was 120%, the viability, T/C (second compound 0.0316 µM, first compound 0.001 µM) was 87.3% and the viability, T/C (second compound 0.0316 µM, first compound 0.00316 µM) was 98.2%. It also gave a viability, T/C (second compound 0.0316 µM, first compound 0.01 µM) of 99%, a viability, T/C (second compound 0.0316 µM, first compound 0.0316 µM) of 106% and a viability, T/C (second compound 0.0316 µM, first compound 0.1 µM) of 86.5%. It also gave a viability, T/C (second compound 0.1 µM, first compound 0.000316 µM) of 107%, a viability, T/C (second compound 0.1 µM, first compound 0.001 µM) of 78.9% and a viability, T/C (second compound 0.1 µM, first compound 0.00316 µM) of 90.2%. It also gave a viability, T/C (second compound 0.1 µM, first compound 0.01 µM) of 76.9%, a viability, T/C (second compound 0.1 µM, first compound 0.0316 µM) of 77.6% and a viability, T/C (second compound 0.1 µM, first compound 0.1 µM) of 83.9%. The viability, T/C (second compound 0.316 µM, first compound 0.000316 µM) was 93.9%, the viability, T/C (second compound 0.316 µM, first compound 0.001 µM) was 100% and the viability, T/C (second compound 0.316 µM, first compound 0.00316 µM) was 80.2%. The viability, T/C (second compound 0.316 µM, first compound 0.01 µM) was 106%, the viability, T/C (second compound 0.316 µM, first compound 0.0316 µM) was 109% and the viability, T/C (second compound 0.316 µM, first compound 0.1 µM) was 90.5%. It also gave a viability, T/C (second compound 1 µM, first compound 0.000316 µM) of 73.3%, a viability, T/C (second compound 1 µM, first compound 0.001 µM) of 75% and a viability, T/C (second compound 1 µM, first compound 0.00316 µM) of 93%. The viability, T/C (second compound 1 µM, first compound 0.01 µM) was 74.3%, the viability, T/C (second compound 1 µM, first compound 0.0316 µM) was 107% and the viability, T/C (second compound 1 µM, first compound 0.1 µM) was 74.1%. For the same compound, the viability, T/C (second compound 3.16 µM, first compound 0.000316 µM) was 72.7%, the viability, T/C (second compound 3.16 µM, first compound 0.001 µM) was 81.7% and the viability, T/C (second compound 3.16 µM, first compound 0.00316 µM) was 79%. It also gave a viability, T/C (second compound 3.16 µM, first compound 0.01 µM) of 69.9%, a viability, T/C (second compound 3.16 µM, first compound 0.0316 µM) of 87.6% and a viability, T/C (second compound 3.16 µM, first compound 0.1 µM) of 76%. For the same compound, the viability, T/C (second compound 10 µM, first compound 0.000316 µM) was 95.6%, the viability, T/C (second compound 10 µM, first compound 0.001 µM) was 91.9% and the viability, T/C (second compound 10 µM, first compound 0.00316 µM) was 97.8%. For the same compound, the viability, T/C (second compound 10 µM, first compound 0.01 µM) was 87.8%, the viability, T/C (second compound 10 µM, first compound 0.0316 µM) was 94% and the viability, T/C (second compound 10 µM, first compound 0.1 µM) was 73.7%.
`O=C(c1cc(Cc2n[nH]c(=O)c3ccccc23)ccc1F)N1CCN(C(=O)C2CC2)CC1` + CCN1C(C(=O)NC23CCC(C(=O)O)(CC2)CC3)C(c2cccc(Cl)c2F)C2(C(=O)Nc3cc(Cl)ccc32)C12CCCCC2 gave an IC50 (second compound 0.00949 µM) of 9.4 µM, an IC50 (second compound 0.03 µM) of over 10 µM and an IC50 (second compound 0.0949 µM) of over 10 µM. The IC50 (second compound 0.3 µM) was 9.47 µM, the IC50 (second compound 0.949 µM) was over 10 µM and the IC50 (second compound 3 µM) was 7.68 µM. It also gave a viability, T/C (second compound 0.00949 µM, first compound 0.0316 µM) of 111%, a viability, T/C (second compound 0.00949 µM, first compound 0.1 µM) of 108% and a viability, T/C (second compound 0.00949 µM, first compound 0.316 µM) of 108%. It also gave a viability, T/C (second compound 0.00949 µM, first compound 1 µM) of 86.9%, a viability, T/C (second compound 0.00949 µM, first compound 3.16 µM) of 92.7% and a viability, T/C (second compound 0.00949 µM, first compound 10 µM) of 46.2%. For the same compound, the viability, T/C (second compound 0.03 µM, first compound 0.0316 µM) was 110%, the viability, T/C (second compound 0.03 µM, first compound 0.1 µM) was 101% and the viability, T/C (second compound 0.03 µM, first compound 0.316 µM) was 102%. For the same compound, the viability, T/C (second compound 0.03 µM, first compound 1 µM) was 104%, the viability, T/C (second compound 0.03 µM, first compound 3.16 µM) was 81.7% and the viability, T/C (second compound 0.03 µM, first compound 10 µM) was 54.6%. It also gave a viability, T/C (second compound 0.0949 µM, first compound 0.0316 µM) of 101%, a viability, T/C (second compound 0.0949 µM, first compound 0.1 µM) of 105% and a viability, T/C (second compound 0.0949 µM, first compound 0.316 µM) of 92.1%. For the same compound, the viability, T/C (second compound 0.0949 µM, first compound 1 µM) was 104%, the viability, T/C (second compound 0.0949 µM, first compound 3.16 µM) was 77.2% and the viability, T/C (second compound 0.0949 µM, first compound 10 µM) was 53%. For the same compound, the viability, T/C (second compound 0.3 µM, first compound 0.0316 µM) was 116%, the viability, T/C (second compound 0.3 µM, first compound 0.1 µM) was 114% and the viability, T/C (second compound 0.3 µM, first compound 0.316 µM) was 102%. It also gave a viability, T/C (second compound 0.3 µM, first compound 1 µM) of 91.2%, a viability, T/C (second compound 0.3 µM, first compound 3.16 µM) of 93.2% and a viability, T/C (second compound 0.3 µM, first compound 10 µM) of 46.2%. It also gave a viability, T/C (second compound 0.949 µM, first compound 0.0316 µM) of 107%, a viability, T/C (second compound 0.949 µM, first compound 0.1 µM) of 109% and a viability, T/C (second compound 0.949 µM, first compound 0.316 µM) of 107%. It also gave a viability, T/C (second compound 0.949 µM, first compound 1 µM) of 92.4%, a viability, T/C (second compound 0.949 µM, first compound 3.16 µM) of 88.9% and a viability, T/C (second compound 0.949 µM, first compound 10 µM) of 51.9%. It also gave a viability, T/C (second compound 3 µM, first compound 0.0316 µM) of 88.2%, a viability, T/C (second compound 3 µM, first compound 0.1 µM) of 85.3% and a viability, T/C (second compound 3 µM, first compound 0.316 µM) of 81.1%. It also gave a viability, T/C (second compound 3 µM, first compound 1 µM) of 83.3%, a viability, T/C (second compound 3 µM, first compound 3.16 µM) of 77.1% and a viability, T/C (second compound 3 µM, first compound 10 µM) of 41.8%.
